Columns and labels:
Test in all cases: relative viability (nuclei count vs DMSO), 5 days (fraction); higher = more cells survive
[1] = compound: CC1=CC(=CC=C1)NC2=NC(=CS2)C3=CC=NC=C3 + CCNC(=O)c1noc(-c2cc(C(C)C)c(O)cc2O)c1-c1ccc(CN2CCOCC2)cc1 [Luminespib] (partner 0.01 µM)
Procedure, shortened: (§1)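 Lung cancer cell lines were pin-tool dosed in 1536-well plates on the day after seeding, with either a lone drug or a fixed anchor-drug dose plus five library-drug doses (not always all listed) in √10 steps. Nuclei were counted on 4× images after 5 days. Relative viability is the ratio of treated-well to vehicle-well nuclei counts, with each value a median of duplicate plates.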

Masitinib + OSI-027 = compound: Cc1ccc(NC(=O)c2ccc(CN3CCN(C)CC3)cc2)cc1Nc1nc(-c2cccnc2)cs1 [Masitinib] + COc1cccc2cc(-c3nc([C@H]4CC[C@H](C(=O)O)CC4)n4ncnc(N)c34)[nH]c12 [OSI-027] (partner 0.5 µM)
Procedure, shortened: as §1

[2] = compound: CC1=CC(=CC=C1)NC2=NC(=CS2)C3=CC=NC=C3 + CS(=O)(=O)N1CCN(Cc2cc3nc(-c4cccc5[nH]ncc45)nc(N4CCOCC4)c3s2)CC1 [Pictilisib] (partner 1 µM)
Procedure, shortened: as §1

Masitinib + AZD7762 = compound: Cc1ccc(NC(=O)c2ccc(CN3CCN(C)CC3)cc2)cc1Nc1nc(-c2cccnc2)cs1 [Masitinib] + NC(=O)Nc1cc(-c2cccc(F)c2)sc1C(=O)N[C@H]1CCCNC1 [AZD7762] (partner 0.2 µM)
Procedure, shortened: as §1

NCI-H2405 showed a relative viability ([1]; first compound 0.08 µM) of 0.583, a relative viability ([1]; first compound 0.253 µM) of 0.589 and a relative viability ([1]; first compound 0.8 µM) of 0.63. The relative viability ([1]; first compound 2.53 µM) was 0.666, the relative viability ([1]; first compound 8 µM) was 0.64 and the relative viability (Masitinib + OSI-027; first compound 0.01 µM) was 0.62. The relative viability (Masitinib + OSI-027; first compound 0.03162 µM) was 0.63, the relative viability (Masitinib + OSI-027; first compound 0.1 µM) was 0.633 and the relative viability (Masitinib + OSI-027; first compound 0.3162 µM) was 0.609. The relative viability (Masitinib + OSI-027; first compound 1 µM) was 0.659, the relative viability ([2]; first compound 0.08 µM) was 0.315 and the relative viability ([2]; first compound 0.253 µM) was 0.433. It also gave a relative viability ([2]; first compound 0.8 µM) of 0.332, a relative viability ([2]; first compound 2.53 µM) of 0.523 and a relative viability ([2]; first compound 8 µM) of 0.342. It also gave a relative viability (Masitinib + AZD7762; first compound 0.01 µM) of 0.741, a relative viability (Masitinib + AZD7762; first compound 0.03162 µM) of 0.778 and a relative viability (Masitinib + AZD7762; first compound 0.1 µM) of 0.738. The relative viability (Masitinib + AZD7762; first compound 0.3162 µM) was 0.692 and the relative viability (Masitinib + AZD7762; first compound 1 µM) was 0.634.

Cell Line NCI-H3122 has a relative viability ([1]; first compound 0.08 µM) of 0.125, a relative viability ([1]; first compound 0.253 µM) of 0.0766 and a relative viability ([1]; first compound 0.8 µM) of 0.101. It also gave a relative viability ([1]; first compound 2.53 µM) of 0.0836, a relative viability ([1]; first compound 8 µM) of 0.105 and a relative viability (Masitinib + OSI-027; first compound 0.03162 µM) of 1.38. It also gave a relative viability (Masitinib + OSI-027; first compound 0.3162 µM) of 0.969, a relative viability (Masitinib + OSI-027; first compound 1 µM) of 1.09 and a relative viability ([2]; first compound 0.08 µM) of 0.648. For the same cell line, the relative viability ([2]; first compound 0.253 µM) was 0.632, the relative viability ([2]; first compound 0.8 µM) was 0.667 and the relative viability ([2]; first compound 2.53 µM) was 0.727. For the same cell line, the relative viability ([2]; first compound 8 µM) was 0.83, the relative viability (Masitinib + AZD7762; first compound 0.01 µM) was 0.797 and the relative viability (Masitinib + AZD7762; first compound 0.03162 µM) was 0.994. The relative viability (Masitinib + AZD7762; first compound 0.1 µM) was 0.993, the relative viability (Masitinib + AZD7762; first compound 0.3162 µM) was 0.921 and the relative viability (Masitinib + AZD7762; first compound 1 µM) was 0.984.

In the case of PC-3 [JPC-3], the relative viability ([1]; first compound 0.08 µM) is reported as 0.715, the relative viability ([1]; first compound 0.253 µM) is reported as 0.723 and the relative viability ([1]; first compound 0.8 µM) is reported as 0.532. For the same cell line, the relative viability ([1]; first compound 2.53 µM) was 0.633, the relative viability ([1]; first compound 8 µM) was 0.629 and the relative viability (Masitinib + OSI-027; first compound 0.01 µM) was 0.381. The relative viability (Masitinib + OSI-027; first compound 0.03162 µM) was 0.643, the relative viability (Masitinib + OSI-027; first compound 0.1 µM) was 0.783 and the relative viability (Masitinib + OSI-027; first compound 0.3162 µM) was 0.64. For the same cell line, the relative viability (Masitinib + OSI-027; first compound 1 µM) was 0.694, the relative viability ([2]; first compound 0.08 µM) was 0.575 and the relative viability ([2]; first compound 0.253 µM) was 0.609. For the same cell line, the relative viability ([2]; first compound 0.8 µM) was 0.617, the relative viability ([2]; first compound 2.53 µM) was 0.629 and the relative viability ([2]; first compound 8 µM) was 0.719. For the same cell line, the relative viability (Masitinib + AZD7762; first compound 0.01 µM) was 0.785, the relative viability (Masitinib + AZD7762; first compound 0.03162 µM) was 0.873 and the relative viability (Masitinib + AZD7762; first compound 0.1 µM) was 0.837. The relative viability (Masitinib + AZD7762; first compound 0.3162 µM) was 0.645 and the relative viability (Masitinib + AZD7762; first compound 1 µM) was 0.642.

Work on PC-14 yielded a relative viability ([1]; first compound 0.08 µM) of 0.143, a relative viability ([1]; first compound 0.253 µM) of 0.183 and a relative viability ([1]; first compound 0.8 µM) of 0.171. It also gave a relative viability ([1]; first compound 2.53 µM) of 0.123, a relative viability ([1]; first compound 8 µM) of 0.138 and a relative viability (Masitinib + OSI-027; first compound 0.01 µM) of 0.887. It also gave a relative viability (Masitinib + OSI-027; first compound 0.03162 µM) of 0.794, a relative viability (Masitinib + OSI-027; first compound 0.1 µM) of 0.822 and a relative viability (Masitinib + OSI-027; first compound 0.3162 µM) of 0.875. It also gave a relative viability (Masitinib + OSI-027; first compound 1 µM) of 0.826, a relative viability ([2]; first compound 0.08 µM) of 0.719 and a relative viability ([2]; first compound 0.253 µM) of 0.666. The relative viability ([2]; first compound 0.8 µM) was 0.634, the relative viability ([2]; first compound 2.53 µM) was 0.752 and the relative viability ([2]; first compound 8 µM) was 0.598. The relative viability (Masitinib + AZD7762; first compound 0.01 µM) was 0.349, the relative viability (Masitinib + AZD7762; first compound 0.03162 µM) was 0.242 and the relative viability (Masitinib + AZD7762; first compound 0.1 µM) was 0.384. The relative viability (Masitinib + AZD7762; first compound 0.3162 µM) was 0.366 and the relative viability (Masitinib + AZD7762; first compound 1 µM) was 0.235.

RERF-LC-KJ showed a relative viability ([1]; first compound 0.08 µM) of 1.06, a relative viability ([1]; first compound 0.253 µM) of 1.19 and a relative viability ([1]; first compound 0.8 µM) of 0.982. It also gave a relative viability ([1]; first compound 2.53 µM) of 0.999, a relative viability ([1]; first compound 8 µM) of 0.717 and a relative viability (Masitinib + OSI-027; first compound 0.01 µM) of 0.629. It also gave a relative viability (Masitinib + OSI-027; first compound 0.03162 µM) of 0.517, a relative viability (Masitinib + OSI-027; first compound 0.1 µM) of 0.583 and a relative viability (Masitinib + OSI-027; first compound 0.3162 µM) of 0.418. The relative viability (Masitinib + OSI-027; first compound 1 µM) was 0.412, the relative viability ([2]; first compound 0.08 µM) was 0.509 and the relative viability ([2]; first compound 0.253 µM) was 0.49. The relative viability ([2]; first compound 0.8 µM) was 0.541, the relative viability ([2]; first compound 2.53 µM) was 0.472 and the relative viability ([2]; first compound 8 µM) was 0.497. For the same cell line, the relative viability (Masitinib + AZD7762; first compound 0.01 µM) was 0.781, the relative viability (Masitinib + AZD7762; first compound 0.03162 µM) was 0.934 and the relative viability (Masitinib + AZD7762; first compound 0.1 µM) was 0.949. For the same cell line, the relative viability (Masitinib + AZD7762; first compound 0.3162 µM) was 0.906 and the relative viability (Masitinib + AZD7762; first compound 1 µM) was 0.92.

Source: the supplement of paper PMC10307832
